Data as given in patent publication US8273797B2, “Treating renal cancer using 4-[bis[2-[(methylsulfonyl)oxy]ethyl]amino]-2-methyl-benzaldehyde” (The United States of America, as represented by the …, priority 2005, dated 2012).
Several values for one entry are separate records, joined by “and”; a condition that tells them apart may be missing. Equal values may be shown once. Entries after “also recorded” stand apart in the source; their conditions may differ.

Columns and labels:
[1] = Toxicity (mortality, body weight loss, tolerability) in mice bearing intrarenal RXF-393 tumors; assay type: in vivo
Protocol: (§1) Intraperitoneal drug treatment schedules were established from the tumor doubling times because pharmacological data were not available. The dose levels were determined by establishing a single injection maximum tolerated dose (MTD) from which the experimental doses were calculated as: dose (mg/kg)=[(1.5×MTD)/no. of doses to be given]. Each experiment consisted of 20 control mice (based on statistical need) that received dosing vehicle (saline+0.05% Tween 80) on the same schedule as used for the test articles. Each treated group contained six mice. Tumor volumes were measured two to three times weekly and the tumor weights were calculated using the formula for a prolate ellipsoid: tumor weight (mg)={[length (in mm)]×[width (in mm)]^2}/2. The control tumors reached 500 mm^3 in 27 days for A498 and 12 days for RXF-393.
RXF-393 cells were injected directly into the caudal pole of the kidney on Day 0. The inoculated kidney was monitored for tumor growth in treated versus control mice by collecting and weighing the kidneys on day 25 post-implantation. In a preliminary experiment, NSC-281612 was administered intraperitoneally (IP) every fourth day for a total of 5 treatments (Q4D×5) starting 4 days after tumor implantation. […] In this study, NSC-281612 was assessed at 25 mg/kg (Group 2), 16.8 mg/kg (Group 3) and 11.3 mg/kg (Group 4). Due to toxicity, the 25 mg/kg dose was lowered to 8.3 mg/kg and only 4 doses were administered to Groups 2 and 3 (see Table 1).
To assess the impact of drug administration route, an experiment was conducted in which NSC-281612 was administered at doses of 8 mg/kg, 4 mg/kg and 2 mg/kg given intravenously (IV) on a Q4D×5 schedule with the first treatment given on day 4 post-tumor implantation. […] See, Table 2 for results and FIG. 6 for individual renal tumor weights for mice administered control only (vehicle), 8 mg/kg, 4 mg/kg, or 2 mg/kg intravenously on a Q4D×5 schedule.

[2] = system: RXF-393 human renal tumor cells; test: Orthotopic intrarenal RXF-393 tumor model; assay type: in vivo, mice; settings: for Median Tumor Weight (mg, Day 23) / T/C (%) / Median Tumor Weight (mg, Day 27): Rt. IV
[3] = system: A498 human renal tumor xenografts; test: Subcutaneous A498 xenograft tumor model; assay type: in vivo, athymic nude mice; settings: NSC-281612 54 mg/kg Q4Dx3 from day 4 post implantation, compared with NSC-281817 120 mg/kg
Protocol: Tumor cells (e.g., A498 and RXF-393) were derived from established tumors maintained by serial passage in mice for a maximum of 10 passages. […] Male mice were used in all experiments. All animals were provided by NCI contractors at the NCI-Frederick production facility or Taconic Laboratories (Germantown, N.Y.).
as §1
Human tumor xenografts were generated by injection of 1×10^7 A498 tumor cells subcutaneously into athymic nude male mice. […] The tumor weight was calculated every fourth day beginning at day 7. […]

Dunning rat leukemia = settings: Elderfield, private communication; no specific data disclosed; cited from earlier work
RCC tumor cell lines = settings: cited from earlier work
xenograft = settings: mouse, in vivo; cited from earlier work
[4] = Group 2: 25 mg/kg Q4Dx3 and a final dose of 8.3 mg/kg IP
[5] = 2 mg/kg/dose IV Q4Dx5 from day 4
[6] = 4 mg/kg/dose IV Q4Dx5 from day 4
[7] = 8 mg/kg/dose IV Q4Dx5 from day 4

In the case of `Cc1cc(N(CCOS(C)(=O)=O)CCOS(C)(=O)=O)ccc1C=O` [NSC-281612, 4-[bis[2-[(methylsulfonyl)oxy]ethyl]amino]-2-methyl-benzaldehyde], the tolerability ([1]; 8, 4 and 2 mg/kg IV Q4Dx5 from day 4) is reported as “well tolerated”, the average weight loss [1, 4] is reported as 27% and the mortality [1, 4] is reported as “no mortality”. For the same compound, the mortality ([1]; Group 3: 16.8 mg/kg Q4Dx5 IP, 16.8 mg/kg) was “no mortality and 16.8 mg NSC-281612/kg Q4Dx5 IP. There was no mortality”, the mortality ([1]; Group 4: 11.3 mg/kg Q4Dx5 IP, 11.3 mg/kg) was “no mortality and 11.3 mg NSC-281612/kg Q4Dx5 IP. There was no mortality” and the “reduction in tumor mass” value ([2]; 2 mg/kg/dose IV Q4Dx5) was “did not achieve a level of statistical significance”. For the same compound, the “Day 22 Tumor Weight average” value [2, 5] was 270 mg, the “Day 22 Tumor Weight median” value [2, 5] was 284 mg and the “Median Tumor Weight (mg, Day 23)” value ([2]; 3.4 mg/kg/dose, QDx5, D5) was 11.5 mg. The “T/C (%)” value ([2]; 3.4 mg/kg/dose, QDx5, D5, Day 23) was 3%, the “Day 22 Tumor Weight average” value [2, 6] was 31 mg and the “Day 22 Tumor Weight median” value [2, 6] was 7 mg. For the same compound, the tumor free animals ([2]; 5 mg/kg/dose IP Q4Dx5) was “no tumor free animals”, the “tumor mass compared to the controls” value ([2]; 5 mg/kg/dose IP Q4Dx5) was “significant reduction in tumor mass” and the “Median Tumor Weight (mg, Day 23)” value ([2]; 5 mg/kg/dose, QDx5, D5) was 0 mg. For the same compound, the “T/C (%)” value ([2]; 5 mg/kg/dose, QDx5, D5, Day 23) was 0%, the “Median Tumor Weight (mg, Day 23)” value ([2]; 7.5 mg/kg/dose, QDx5, D5) was 0 mg and the “T/C (%)” value ([2]; 7.5 mg/kg/dose, QDx5, D5, Day 23) was 0%. For the same compound, the “Day 22 Tumor Weight average” value [2, 7] was 1 mg, the “Day 22 Tumor Weight median” value [2, 7] was 0 mg and the “reduction in tumor weights” value ([2]; 8 mg/kg/dose and 4 mg/kg/dose IV Q4Dx5) was “statistically significant reductions in the tumor weights”. For the same compound, the “Median Tumor Weight (mg, Day 27)” value ([2]; 25 mg/kg/dose, QDx1, D1O) was 0 mg, the “T/C (%)” value ([2]; 25 mg/kg/dose, QDx1, D1O, Day 27) was 0% and the “Median Tumor Weight (mg, Day 27)” value ([2]; 25 mg/kg/dose, QDx1, D5) was 340 mg. For the same compound, the “T/C (%)” value ([2]; 25 mg/kg/dose, QDx1, D5, Day 27) was 94%, the “Median Tumor Weight (mg, Day 27)” value ([2]; 25 mg/kg/dose, QDx1, D15) was 1 mg and the “T/C (%)” value ([2]; 25 mg/kg/dose, QDx1, D15, Day 27) was 0%. For the same compound, the “tumor burden at day 25 post-implantation” value ([2]; IP Q4Dx5 starting day 4, 25, 16.8 and 11.3 mg/kg (Groups 2-4)) was “markedly reduced the tumor burden; also recorded: active against intrarenal RXF-393 tumors at several doses”, the “decrease in tumor weight” value ([2]; daily dose for five sequential days, doses as low as 3.4 mg/kg/dose) was “statistically significant decrease in tumor weight” and the “efficacy of single dose” value ([2]; single 25 mg/kg dose on day 5 post-tumor implantation) was “ineffective”. For the same compound, the “animals with no detectable tumor” value ([2]; single 25 mg/kg dose on day 10 or 15 post-tumor implantation) was “seven often”, the “median tumor weight (effectiveness in limiting tumor weight)” value [3] was “at least as effective in limiting tumor weight as NSC-281617” and the “activity against Dunning rat leukemia” value (Dunning rat leukemia) was “possesses activity against Dunning rat leukemia”.

In the case of `Cc1cc(N(CCOS(C)(=O)=O)CCOS(C)(=O)=O)ccc1C=Nc1ccc(-c2nc(Cc3ccccc3)sc2C)cc1` [NSC-281817], the “in vitro activity against RCC tumor cell lines” value (shortened to “in vitro activity”) (RCC tumor cell lines) is given as “having in vitro activity” and the “antitumor activity in xenograft-bearing mice” value (“antitumor activity” for short) (xenograft) is given as “only modest”.

For `CS(=O)(=O)OCCN(CCOS(C)(=O)=O)c1ccc(C=Nc2ccc(-c3csc(COc4ccccc4)n3)cc2)cc1` [compound 280074], the “in vitro activity” value (RCC tumor cell lines) is given as “having in vitro activity” and the “antitumor activity” value (xenograft) is given as “only modest”.

For `Cc1cc(N(CCOS(C)(=O)=O)CCOS(C)(=O)=O)ccc1C=Nc1ccc(-c2csc(-c3ccccc3)n2)c(Cl)c1` [compound 281613], the “in vitro activity” value (RCC tumor cell lines) is given as “having in vitro activity” and the “antitumor activity” value (xenograft) is given as “only modest”.
